Measured values from patent US8431597B2, “Benzimidazole derivatives” (Pfizer Inc., priority 2007, dated 2013).
Counter-ions that a name gives are not always drawn.

target: T1, Smoothened (SMO) (Mus musculus, UniProt P56726); test: Smoothened (SMO)/Sonic Hedgehog (SHh) Transient Transcriptional Activation Assay (Gli-luciferase reporter in C3H10T1/2 cells); format: cell-based, murine; conditions: C3H 10T1/2, 2 μM compound; transfected C3H10T1/2 cells, recombinant human SHh 250 ng/mL, 20 hours, luciferase readout; read-out: SMO CELL % INHIBITION @ 2 μM
T1 construct: C3H10T1/2 cells (ATCC #CCL-226) were split and seeded; endogenous in cells; host or cells: C3H10T1/2 (ATCC #CCL-226)
Experimental: As noted above, the compounds of the invention are useful as inhibitors of SMO. • Methods for determining the in vitro activity of these compounds are described below: Smoothened (SMO)/Sonic Hedgehog (SHh) Transient Transcriptional Activation Assay
On Day 1, 2×10^6 C3H10T1/2 cells (ATCC #CCL-226) were split and seeded in 12 mL of growth medium Basal Medium Eagle (BME, Invitrogen #21010-046) supplemented with 2 mM L-glutamine (Invitrogen #25030-081), 0.1 units/mL penicillin and 0.1 μg/mL streptomycin (Invitrogen #15140-122), and 10% Fetal Bovine Serum (FBS, Invitrogen #16140-071) in a T-75 flask (Costar #3376). They were allowed to attach for 4 hours at 37° C., 5% CO2. The cells were then transfected using Fugene 6 (Roch #11 814 443 001) in the following reaction: 48 μL Fugene 6 and 745 μL Opti-MEM (Invitrogen #31985-070) were mixed and allowed to sit at room temperature for 5 minutes. 8 μg of pGL4.14/mGli(CS) DNA (10× murine Gli response elements and minimal CS promoter) and 0.5 μg of pEGFP DNA (Clontech) were added, gently mixed and incubated at room temperature for 20 minutes. This entire transfection mix was then added to the T-75 flask containing the cells. The cells were incubated at 37° C., 5% CO2 for 18-24 hours.
On Day 2, the transfected cells were trypsinized and seeded into white 96 well plates (Costar #3917) in 100 μL/well of growth medium at a concentration of 20,000 cells/well. The cells were allowed to recover for 4 hours before adding serum starvation medium Dulbecco's Modified Eagle Medium (DMEM, Invitrogen #21063-029) supplemented with 2 mM L-glutamine, 0.1 units/mL penicillin and 0.1 μg/mL streptomycin, and 0.5% Calf Serum (CS, Invitrogen #26170-043). The growth media was aspirated off, and the cells were rinsed with 100 μL of starvation media. 95 μL of starvation media was then added to each well. The cells were incubated for 20 hours at 37° C., 5% CO2.
On Day 3, cells were dosed with test compounds at a final concentration ranging from 2 μM to 2 nM. Immediately after dosing cells with compounds, recombinant human sonic hedgehog (SHh, R&D Systems #1845-SH) was add to a final concentration of 250 ng/mL. A 25 μg vial of SHh was reconstituted with 250 μL PBS/0.1% BSA to give a 100 ng/μL working stock. This working stock was then diluted 1:20 in starvation media. The transfected cells were incubated with compounds and SHh for 20 hours at 37° C., 5% CO2.
Luciferase assays were conducted on Day 4 using Dual-Glo Luciferase assay system (Promega #E2940) according to Promega's protocol. Briefly, Dual-Glo luciferase reagent was made up and 100 μL were added to each well of the 96 well plate containing media. Plates were shaken at room temperature for 10 minutes, and then read on TopCount (Perkin-Elmer). The luminescence was recorded.

T1 sequence (P56726 33-793): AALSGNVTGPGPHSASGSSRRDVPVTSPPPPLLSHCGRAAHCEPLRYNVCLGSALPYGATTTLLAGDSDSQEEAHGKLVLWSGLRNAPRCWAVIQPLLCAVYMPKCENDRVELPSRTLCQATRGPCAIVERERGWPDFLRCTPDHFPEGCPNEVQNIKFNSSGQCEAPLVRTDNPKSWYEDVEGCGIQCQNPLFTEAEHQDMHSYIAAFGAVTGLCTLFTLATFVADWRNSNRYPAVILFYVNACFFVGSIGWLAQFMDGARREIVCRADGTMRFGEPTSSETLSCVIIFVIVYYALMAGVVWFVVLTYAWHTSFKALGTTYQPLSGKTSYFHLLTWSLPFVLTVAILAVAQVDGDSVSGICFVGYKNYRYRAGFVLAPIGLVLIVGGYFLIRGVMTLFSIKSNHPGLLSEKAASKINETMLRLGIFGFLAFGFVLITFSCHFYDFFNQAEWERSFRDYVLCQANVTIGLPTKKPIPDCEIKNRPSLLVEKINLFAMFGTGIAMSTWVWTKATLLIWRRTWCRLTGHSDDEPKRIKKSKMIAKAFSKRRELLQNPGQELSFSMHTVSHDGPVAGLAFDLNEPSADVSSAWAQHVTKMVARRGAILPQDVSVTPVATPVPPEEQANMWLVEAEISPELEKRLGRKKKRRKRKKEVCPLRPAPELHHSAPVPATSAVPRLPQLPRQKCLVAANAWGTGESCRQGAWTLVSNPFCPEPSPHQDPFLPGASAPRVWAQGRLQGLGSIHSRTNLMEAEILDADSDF

SMILES | inhibition at 2 µM [%]
CCN1CC[C@@H](NC(=O)c2ccc3c(c2)OCCO3)C[C@@H]1c1nc2ccccc2[nH]1 [Example 44, N-[(2R,4R)-2-(1H-benzimidazol-2-yl)-1-ethylpiperidin-4-yl]-2,3-dihydro-1,4-benzodioxine-6-carboxamide hydrochloride] | 105
CN1CC[C@@H](NC(=O)c2ccc3c(c2)OCCO3)C[C@@H]1c1nc2ccc(F)cc2[nH]1 [Example 45, N-[(2R,4R)-2-(6-fluoro-1H-benzimidazol-2-yl)-1-methylpiperidin-4-yl]-2,3-dihydro-1,4-benzodioxine-6-carboxamide hydrochloride] | 105
CN1CC[C@@H](NC(=O)c2ccc3c(c2)CCO3)C[C@@H]1c1nc2ccccc2[nH]1 [Example 47, N-[(2R,4R)-2-(1H-benzimidazol-2-yl)-1-methylpiperidin-4-yl]-2,3-dihydro-1-benzofuran-5-carboxamide hydrochloride] | 105
Cc1cc2nc([C@H]3C[C@H](NC(=O)c4ccc5c(c4)OCCO5)CCN3C)[nH]c2cc1C [Example 49, N-[(2R,4R)-2-(5,6-dimethyl-1H-benzimidazol-2-yl)-1-methylpiperidin-4-yl]-2,3-dihydro-1,4-benzodioxine-6-carboxamide hydrochloride] | 105
CC(=O)c1c(C)[nH]c(C(=O)N[C@@H]2CCN(C)[C@@H](c3nc4ccccc4[nH]3)C2)c1C [Example 50, 4-acetyl-N-[(2R,4R)-2-(1H-benzimidazol-2-yl)-1-methylpiperidin-4-yl]-3,5-dimethyl-1H-pyrrole-2-carboxamide hydrochloride] | 105
Cc1cc2nc([C@H]3C[C@H](NC(=O)Nc4ccc(C#N)cc4)CCN3C)[nH]c2cc1C [Example 52, 1-(4-cyanophenyl)-3-[(2R,4R)-2-(5,6-dimethyl-1H-benzimidazol-2-yl)-1-methylpiperidin-4-yl]urea hydrochloride] | 105
CN1CC[C@@H](NC(=O)c2ccc3c(c2)OCCO3)C[C@@H]1c1nc2cc(F)c(F)cc2[nH]1 [Example 57, N-[(2R,4R)-2-(5,6-difluoro-1H-benzimidazol-2-yl)-1-methylpiperidin-4-yl]-2,3-dihydro-1,4-benzodioxine-6-carboxamide hydrochloride] | 104
CN1C[C@@H](NC(=O)Nc2ccc(Cl)c(C(F)(F)F)c2)C[C@H]1c1nc2ccc(F)cc2[nH]1 [Example 58, 1-[4-chloro-3-(trifluoromethyl)phenyl]-3-[(3S,5S)-5-(6-fluoro-1H-benzimidazol-2-yl)-1-methylpyrrolidin-3-yl]urea] | 104
N#Cc1ccc(NC(=O)N[C@@H]2CCN(Cc3ccccc3)[C@@H](c3nc4ccccc4[nH]3)C2)cc1 [Example 61, 1-[(2R,4R)-2-(1H-benzimidazol-2-yl)-1-benzylpiperidin-4-yl]-3-(4-cyanophenyl)urea] | 99.5
CN1CC[C@@H](NC(=O)c2ccc3c(c2)OCCO3)C[C@@H]1c1nc2ccc(C#N)cc2[nH]1 [Example 63, N-[(2R,4R)-2-(6-cyano-1H-benzimidazol-2-yl)-1-methylpiperidin-4-yl]-2,3-dihydro-1,4-benzodioxine-6-carboxamide hydrochloride] | 104
CN1CC[C@@H](NC(=O)c2ccc(C(=O)C(F)(F)F)cc2)C[C@@H]1c1nc2ccccc2[nH]1 [Example 68, N-[(2R,4R)-2-(1H-benzimidazol-2-yl)-1-methylpiperidin-4-yl]-4-(trifluoroacetyl)benzamide] | 102

Second part, the compound after the results:

inhibition at 2 µM [%] | SMILES
106 | CN1CC[C@@H](NC(=O)Nc2ccc(C#N)cn2)C[C@@H]1c1nc2ccccc2[nH]1 [Example 43, 1-[(2R,4R)-2-(1H-benzimidazol-2-yl)-1-methylpiperidin-4-yl]-3-(5-cyanopyridin-2-yl)urea hydrochloride]
105 | CCN1CC[C@@H](NC(=O)Nc2ccc(C#N)cc2)C[C@@H]1c1nc2ccccc2[nH]1 [Example 46, 1-[(2R,4R)-2-(1H-benzimidazol-2-yl)-1-ethylpiperidin-4-yl]-3-(4-cyanophenyl)urea]
105 | Cc1ccc(NC(=O)N[C@@H]2CCN(C)[C@@H](c3nc4ccccc4[nH]3)C2)c(C)n1 [Example 48, 1-[(2R,4R)-2-(1H-benzimidazol-2-yl)-1-methylpiperidin-4-yl]-3-(2,6-dimethylpyridin-3-yl)urea hydrochloride]
105 | CN1CC[C@@H](NC(=O)Nc2ccc(C#N)cc2)C[C@@H]1c1nc2cc(F)ccc2[nH]1 [Example 51, 1-(4-cyanophenyl)-3-[(2R,4R)-2-(5-fluoro-1H-benzimidazol-2-yl)-1-methylpiperidin-4-yl]urea hydrochloride]
105 | CC(C)c1ccc(NC(=O)N[C@@H]2CCN(C)[C@@H](c3nc4ccccc4[nH]3)C2)cc1 [Example 53, 1-[(2R.4R)-2-(1H-benzimidazol-2-yl)-1-methylpiperidin-4-yl]-3-(4-isopropylphenyl)urea hydrochloride]
105 | CN1CC[C@@H](NC(=O)Nc2ccc(C#N)nc2)C[C@@H]1c1nc2ccccc2[nH]1 [Example 54, 1-[(2R,4R)-2-(1H-benzimidazol-2-yl)-1-methylpiperidin-4-yl]-3-(6-cyanopyridin-3-yl)urea hydrochloride]
105 | CN1CC[C@@H](NC(=O)Nc2ccc(C(F)(F)F)nc2)C[C@@H]1c1nc2cc(C#N)ccc2[nH]1 [Example 55, 1-[(2R,4R)-2-(5-cyano-1H-benzimidazol-2-yl)-1-methylpiperidin-4-yl]-3-[6-(trifluoromethyl)pyridin-3-yl]urea hydrochloride]
104 | CN(C)c1ccc(NC(=O)N[C@@H]2CCN(C)[C@@H](c3nc4ccccc4[nH]3)C2)cc1 [Example 56, 1-[(2R,4R)-2-(1H-benzimidazol-2-yl)-1-methylpiperidin-4-yl]-3-[4-(dimethylamino)phenyl]urea hydrochloride]
104 | CC(C)CCN1CC[C@@H](NC(=O)Nc2ccc(C#N)cc2)C[C@@H]1c1nc2ccccc2[nH]1 [Example 60, 1-[(2R,4R)-2-(1H-benzimidazol-2-yl)-1-(3-methylbutyl)piperidin-4-yl]-3-(4-cyanophenyl)urea]
104 | COc1ccc2[nH]c([C@H]3C[C@H](NC(=O)Nc4ccc(C(F)(F)F)nc4)CCN3C)nc2c1 [Example 62, 1-[(2R,4R)-2-(5-methoxy-1H-benzimidazol-2-yl)-1-methylpiperidin-4-yl]-3-[6-(trifluoromethyl)pyridin-3-yl]urea hydrochloride]
103 | CN1CC[C@@H](NC(=O)Nc2ccc(C#N)cc2)C[C@@H]1c1nc2cc(Cl)ccc2[nH]1 [Example 64, 1-[(2R,4R)-2-(5-chloro-1H-benzimidazol-2-yl)-1-methylpiperidin-4-yl]-3-(4-cyanophenyl)urea hydrochloride]
103 | Cc1ccc2[nH]c([C@H]3C[C@H](NC(=O)Nc4ccc(C(F)(F)F)nc4)CCN3C)nc2c1 [Example 65, 1-[(2R,4R)-1-methyl-2-(5-methyl-1H-benzimidazol-2-yl)piperidin-4-yl]-3-[6-(trifluoromethyl)pyridin-3-yl]urea hydrochloride]
103 | CN1CC[C@@H](NC(=O)Nc2ccc(C(F)(F)F)nc2)C[C@@H]1c1nc2ccccc2[nH]1 [Example 66, 1-[(2R,4R)-2-(1H-benzimidazol-2-yl)-1-methylpiperidin-4-y1]-3-[6-(trifluoromethyl)pyridin-3-yl]urea hydrochloride]
103 | CN1CC[C@@H](NC(=O)Nc2ccc3c(c2)OCCO3)C[C@@H]1c1nc2ccccc2[nH]1 [Example 67, 1-[(2R,4R)-2-(1H-benzimidazol-2-yl)-1-methylpiperidin-4-yl]-3-(2,3-dihydro-1,4-benzodioxin-6-yl)urea hydrochloride]
